Read-outs that look alike come from different tables or passages of the source.
Tests used:
[1] = test system: Key Broadleaf Weed and Crop Species; experiment: Post-emergent Test II herbicidal activity (Table 5); assay type: in vivo; details: post-emergence, 336 h, post-emergent, 14 days after application; for pest or weed control at 70 g/ha: 70 g ai/ha; for pest or weed control at 140 g/ha: 140 g ai/ha
Outline: (§1)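 Compounds, dissolved in 97:3 acetone/DMSO and diluted into an aqueous carrier containing crop oil concentrate and Triton X-155, are applied over the top of young plants at 187 L/ha. Injury is scored visually at 14 d, 0% meaning no effect and 100% complete kill.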

[2] = test system: Key Grass and Sedge Weeds as well as Grass Crops; experiment: Post-emergent Test II herbicidal activity (Table 6); assay type: in vivo; details: post-emergence, 336 h; for pest or weed control at 70 g/ha: application rate 70 g ai/ha; for pest or weed control at 140 g/ha: application rate 140 g ai/ha
Outline: as §1

[3] = ABUTH: velvetleaf (Abutilon theophrasti), read-out: Visual Growth Reduction (%) 14 Days After Application ABUTH
[4] = AMARE: redroot pigweed (Amaranthus retroflexus), read-out: Visual Growth Reduction (%) 14 Days After Application AMARE
[5] = BRSNN: oilseed-rape, canola (Brassica napus), read-out: Visual Growth Reduction (%) 14 Days After Application BRSNN
[6] = CHEAL: lambsquarters (Chenopodium album), read-out: Visual Growth Reduction (%) 14 Days After Application CHEAL
[7] = EPHHL: wild poinsettia (Euphorbia heterophylla), read-out: Visual Growth Reduction (%) 14 Days After Application EPHHL
[8] = HELAN: sunflower (Helianthus annuus), read-out: Visual Growth Reduction (%) 14 Days After Application HELAN
[9] = VIOTR: wild pansy (Viola tricolor), read-out: Visual Growth Reduction (%) 14 Days After Application VIOTR
[10] = CYPES: yellow nutsedge (Cyperus esculentus), read-out: Visual Growth Reduction (%) 14 Days After Application, CYPES
[11] = DIGSA: crabgrass (Digitaria sanguinalis), read-out: Visual Growth Reduction (%) 14 Days After Application, DIGSA
[12] = ECHCG: barnyardgrass (Echinochloa crus-galli), read-out: Visual Growth Reduction (%) 14 Days After Application, ECHCG
[13] = ORYSA: rice (Oryza sativa), read-out: Visual Growth Reduction (%) 14 Days After Application, ORYSA
[14] = SETFA: giant foxtail (Setaria faberi), read-out: Visual Growth Reduction (%) 14 Days After Application, SETFA
[15] = SORVU: grain sorghum (Sorghum vulgare), read-out: Visual Growth Reduction (%) 14 Days After Application, SORVU
[16] = TRZSS (wheat, Triticum aestivum), read-out: Visual Growth Reduction (%) 14 Days After Application, TRZSS
[17] = ZEAMX: maize, corn (Zea mays), read-out: Visual Growth Reduction (%) 14 Days After Application, ZEAMX

C=Cc1c(N)nc(-c2ccc(C(F)(F)F)c(F)c2)nc1C(=O)O [Compound 32, 6-Amino-2-(3-fluoro-4-(trifluoromethyl)phenyl)-5-vinylpyrimidine-4-carboxylic acid]
melting point: 168 to 171 °C
pest or weed control at 70 g/ha [1, 3]: 60 to 74%
pest or weed control at 140 g/ha [1, 3]: 60 to 74%
pest or weed control at 70 g/ha [1, 4]: 75 to 84%
pest or weed control at 140 g/ha [1, 4]: 95 to 100%
pest or weed control at 70 g/ha [1, 5]: 0 to 29%
pest or weed control at 140 g/ha [1, 5]: 45 to 59%
pest or weed control at 70 g/ha [1, 6]: 95 to 100%
pest or weed control at 140 g/ha [1, 6]: 95 to 100%
pest or weed control at 70 g/ha [1, 7]: 95 to 100%
pest or weed control at 140 g/ha [1, 7]: 95 to 100%
pest or weed control at 70 g/ha [1, 8]: 85 to 94%
pest or weed control at 140 g/ha [1, 8]: 85 to 94%
pest or weed control at 70 g/ha [1, 9]: 0 to 29%
pest or weed control at 140 g/ha [1, 9]: 0 to 29%
pest or weed control at 70 g/ha [2, 10]: 0 to 29%
pest or weed control at 140 g/ha [2, 10]: 45 to 59%
pest or weed control at 70 g/ha [2, 11]: 0 to 29%
pest or weed control at 140 g/ha [2, 11]: 0 to 29%
pest or weed control at 70 g/ha [2, 12]: 75 to 84%
pest or weed control at 140 g/ha [2, 12]: 75 to 84%
pest or weed control at 70 g/ha [2, 13]: 0 to 29%
pest or weed control at 140 g/ha [2, 13]: 0 to 29%
pest or weed control at 70 g/ha [2, 14]: 0 to 29%
pest or weed control at 140 g/ha [2, 14]: 0 to 29%
pest or weed control at 70 g/ha [2, 15]: 60 to 74%
pest or weed control at 140 g/ha [2, 15]: 60 to 74%
pest or weed control at 70 g/ha [2, 16]: 0 to 29%
pest or weed control at 140 g/ha [2, 16]: 0 to 29%
pest or weed control at 70 g/ha [2, 17]: 45 to 59%
pest or weed control at 140 g/ha [2, 17]: 60 to 74%
